The target in one assay is T1, Jak1 (Homo sapiens, UniProt P23458).
T1 construct: Reaction Biology Corp (performed the assay)
The assay can be described thus: Jak1 biochemical assay (33P-ATP filter-binding, Reaction Biology Corp). The following applies: for IC50: biochemical kinase assay, 33P-ATP, filter-binding, read-out: Jak1 (range of IC50); for Jak1 inhibition, statement in words: biochemical assays, Jak1 versus Jak2. The protocol: (§1) Example B1: Jak1, 2, 3, Tyk2 Biochemical Assays
(§2) Assays were performed by Reaction Biology Corp, Malvern, Pa. The procedure is briefly described below.
(§3) Base Reaction buffer; 20 mM Hepes (pH 7.5), 10 mM MgCl2, 1 mM EGTA, 0.02% Brij35, 0.02 mg/ml BSA, 0.1 mM Na3VO4, 2 mM DTT, 1% DMSO. Required cofactors are added individually to each kinase reaction
(§4) 1. Prepare indicated substrate in freshly prepared Base Reaction Buffer
(§5) 2. Deliver any required cofactors to the substrate solution above
(§6) 3. Deliver indicated kinase into the substrate solution and gently mix
(§7) 4. Deliver compounds in DMSO into the kinase reaction mixture by Acoustic technology (Echo550; nanoliter range), incubate for 20 minutes at room temperature
(§8) 5. Deliver ^33P-ATP (specific activity 10 μCi/μl) into the reaction mixture to initiate the reaction.
(§9) 6. Incubate kinase reaction for 2 hours at room temperature
(§10) 7. Reactions are spotted onto P81 ion exchange paper
(§11) 8. Detect kinase activity by filter-binding method.

In a further assay the target is T2, Jak2 (Homo sapiens, UniProt O60674).
T2 construct: Reaction Biology Corp (performed the assay)
Description: Jak2 biochemical assay (33P-ATP filter-binding, Reaction Biology Corp). The following applies: biochemical kinase assay, read-out: Jak2 (range of IC50). The protocol: as §1, §2, §3, §4, §5, §6, §7, §8, §9, §10, §11

In assay [1] the test system is IL-6 induced STAT3 phosphorylation. Description: Human whole blood p-STAT3 assay, IL-6 stimulation. It counts as cell-based. The conditions noted are these: for IC50: 0.25 h, IL-6 100 ng/ml 15 min, pSTAT3 ELISA, read-out: IL-6 (range of IC50, induced STAT3 phosphorylation); for Inhibition of IL-6 induced STAT3 phosphorylation, statement in words: versus TPO induced. The protocol:
(§12) Example B2: Human Whole Blood p-STAT3 Assay
(§13) 1. Whole blood samples from human donors
2. IL-6 (R&D systems; Cat #206-IL)
(§14) 5. ELISA kit for pSTAT3 (Invitrogen; Cat # KH00481)
(§15) 1. 150 μl heparinized blood sample/tube.
(§16) 2. Compounds at various concentrations is added to the blood, incubate for 10 min at RT (10 doses, 2 replicates for each compound).
(§17) 3. Add IL-6 (final concentration: 100 ng/ml) or TPO (final conc: 50 ng/ml) to the blood for 15 min.
(§18) 4. After the stimulation, add 0.6 mL RBC lysis buffer (Qiagen 79217) and mix and rock for 1-2 minutes at room temperature before centrifugation to remove lyzed RBCs. This step may be repeated once if RBCs are not lyzed completely. Harvest the WBCs.
(§19) 5. Add 200 μl cell lysis buffer, ice 30 min.
(§20) 7. Transfer the supernatant to a new tube as cell lysate.
(§21) 8. Run ELISA procedure according to the product instruction of ELIA kit.

Assay [2] concerns TPO induced STAT3 phosphorylation. The assay can be described thus: Human whole blood p-STAT3 assay, TPO stimulation. It counts as cell-based. The following applies: for IC50: 0.25 h, TPO 50 ng/ml 15 min, pSTAT3 ELISA, read-out: TPO (range of IC50, induced STAT3 phosphorylation). The method, then:
as §12, §13
3. Thrombopoietin (TPO; R&D systems; Cat #288-TP)
as §14, §15, §16, §17, §18, §19, §20, §21

The record followed here is patent USRE50799E1, “JAK1 selective inhibitors and uses thereof” (Hangzhou HighlightII Pharmaceutical Co., Ltd, priority 2016, dated 2026).

T2 sequence (O60674 whole entry): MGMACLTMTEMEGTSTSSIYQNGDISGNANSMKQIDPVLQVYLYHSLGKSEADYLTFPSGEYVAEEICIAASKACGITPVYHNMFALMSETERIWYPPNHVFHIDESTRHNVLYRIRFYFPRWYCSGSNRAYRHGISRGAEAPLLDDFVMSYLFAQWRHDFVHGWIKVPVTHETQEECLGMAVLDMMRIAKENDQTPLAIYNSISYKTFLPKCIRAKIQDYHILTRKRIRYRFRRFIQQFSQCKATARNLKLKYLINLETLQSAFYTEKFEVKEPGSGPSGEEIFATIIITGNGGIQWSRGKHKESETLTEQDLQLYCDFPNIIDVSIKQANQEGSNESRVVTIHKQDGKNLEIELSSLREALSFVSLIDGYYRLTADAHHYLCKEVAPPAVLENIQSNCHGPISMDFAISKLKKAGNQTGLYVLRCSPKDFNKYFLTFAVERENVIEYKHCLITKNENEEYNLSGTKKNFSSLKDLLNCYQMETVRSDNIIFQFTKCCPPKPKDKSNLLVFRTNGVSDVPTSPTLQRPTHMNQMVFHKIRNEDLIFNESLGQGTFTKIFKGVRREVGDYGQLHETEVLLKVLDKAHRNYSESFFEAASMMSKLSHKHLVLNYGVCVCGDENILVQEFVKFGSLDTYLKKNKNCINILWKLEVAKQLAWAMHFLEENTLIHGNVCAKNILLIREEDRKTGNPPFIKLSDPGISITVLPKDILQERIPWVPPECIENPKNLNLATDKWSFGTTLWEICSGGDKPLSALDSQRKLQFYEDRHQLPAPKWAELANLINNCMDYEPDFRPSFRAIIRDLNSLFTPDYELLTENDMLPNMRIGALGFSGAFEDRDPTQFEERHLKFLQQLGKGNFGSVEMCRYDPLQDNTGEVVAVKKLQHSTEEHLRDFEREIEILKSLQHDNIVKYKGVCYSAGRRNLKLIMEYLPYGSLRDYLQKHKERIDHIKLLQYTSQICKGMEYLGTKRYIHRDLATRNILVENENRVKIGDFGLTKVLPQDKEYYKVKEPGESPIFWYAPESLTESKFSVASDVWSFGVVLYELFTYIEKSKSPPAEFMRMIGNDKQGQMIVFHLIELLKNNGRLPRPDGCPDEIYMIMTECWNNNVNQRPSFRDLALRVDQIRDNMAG
T1 sequence (P23458 whole entry): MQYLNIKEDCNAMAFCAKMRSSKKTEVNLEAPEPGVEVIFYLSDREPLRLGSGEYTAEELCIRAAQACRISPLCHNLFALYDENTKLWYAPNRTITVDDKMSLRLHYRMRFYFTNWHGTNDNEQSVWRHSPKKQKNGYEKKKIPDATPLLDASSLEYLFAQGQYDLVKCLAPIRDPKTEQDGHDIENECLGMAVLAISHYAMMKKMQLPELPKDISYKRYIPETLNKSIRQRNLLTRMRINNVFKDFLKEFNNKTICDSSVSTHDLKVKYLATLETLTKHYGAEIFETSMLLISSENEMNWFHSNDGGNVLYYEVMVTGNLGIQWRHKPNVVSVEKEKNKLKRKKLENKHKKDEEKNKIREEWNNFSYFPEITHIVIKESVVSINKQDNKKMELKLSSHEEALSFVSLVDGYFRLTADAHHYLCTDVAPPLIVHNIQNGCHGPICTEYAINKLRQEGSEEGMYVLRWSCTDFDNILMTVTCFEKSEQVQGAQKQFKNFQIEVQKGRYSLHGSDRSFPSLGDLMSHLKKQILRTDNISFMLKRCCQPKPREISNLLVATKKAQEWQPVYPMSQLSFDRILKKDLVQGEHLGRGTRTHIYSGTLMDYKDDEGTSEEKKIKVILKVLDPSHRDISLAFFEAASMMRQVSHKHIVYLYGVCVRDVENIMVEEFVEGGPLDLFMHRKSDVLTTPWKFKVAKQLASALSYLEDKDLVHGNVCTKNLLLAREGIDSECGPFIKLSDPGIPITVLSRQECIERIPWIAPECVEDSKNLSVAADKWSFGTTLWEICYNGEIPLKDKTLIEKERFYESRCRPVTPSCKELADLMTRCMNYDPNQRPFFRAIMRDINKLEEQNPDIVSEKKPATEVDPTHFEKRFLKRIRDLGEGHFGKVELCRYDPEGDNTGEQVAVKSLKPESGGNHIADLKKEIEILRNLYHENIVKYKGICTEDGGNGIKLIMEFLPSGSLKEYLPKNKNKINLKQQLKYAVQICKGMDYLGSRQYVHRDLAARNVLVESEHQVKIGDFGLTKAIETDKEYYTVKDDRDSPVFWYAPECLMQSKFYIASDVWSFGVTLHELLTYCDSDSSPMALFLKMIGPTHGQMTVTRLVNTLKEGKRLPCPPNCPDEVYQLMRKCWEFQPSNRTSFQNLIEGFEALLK

For `C[C@@H](O)c1nc2cnc3ccoc3c2n1C1CCN(C(=O)NCC(F)(F)F)CC1` [Example 6, (R)-4-[2-(1-Hydroxyethyl)-1H-furo[3,2-b]imidazo[4,5-d]pyridin-1-yl]-N-(2,2,2-trifluoroethyl)piperidine-1-carboxamide], the concentration for half-maximal inhibition (IC50) at Jak1 and at Jak2 was above 1 µM in each case.

In the case of `C[C@@H](O)c1nc2cnc3ccoc3c2n1[C@H]1CC[C@H](CC#N)CC1` [Example 3, 2-[trans-4-[2-[(R)-1-Hydroxyethyl]furo[3,2-b]imidazo[4,5-d]pyridin-1-yl]cyclohexyl] acetonitrile], the 50% inhibitory concentration (IC50) was below 5 µM in assay [1], above 100 µM in assay [2], below 0.01 µM on Jak1 and 0.1 to 1 µM on Jak2. For the same compound, the “Inhibition of IL-6 induced STAT3 phosphorylation, statement in words” value in assay [1] is reported as “selective inhibition of IL-6 induced STAT3 phosphorylation, but not TPO induced STAT3 phosphorylation”. Also, the “Jak1 inhibition, statement in words” value at Jak1 was “potent and selective Jak1 inhibitors”.

As to `N#CC[C@@H]1CC[C@H](n2c(CO)nc3cnc4ccoc4c32)CO1` [Example 8, 2-[(2S,5S)-5-[2-(Hydroxymethyl)furo[3,2-b]imidazo[4,5-d]pyridin-1-yl]tetrahydropyran-2-yl] acetonitrile], the IC50 is 0.1 to 1 µM at Jak1 and above 1 µM on Jak2.

As for `C[C@@H](O)c1nc2cnc3ccoc3c2n1C1CCN(C(=O)NCC(F)(F)F)C1` (stereo partly drawn) [Example 5, 3-[2-[(R)-1-Hydroxyethyl]-1H-furo[3,2-b]imidazo[4,5-d]pyridin-1-yl]-N-(2,2,2-trifluoroethyl)pyrrolidine-1-carboxamide], the IC50 on Jak1 and on Jak2 was above 1 µM throughout.

As to `CCc1nc2cnc3ccoc3c2n1[C@H]1CC[C@H](CC#N)OC1` [Example 9, 2-[(2R,5S)-5-[2-Ethylfuro[3,2-b]imidazo[4,5-d]pyridin-1-yl]tetrahydropyran-2-yl] acetonitrile], at Jak1, the “Jak1 inhibition, statement in words” value was “potent and selective Jak1 inhibitors”; the half-inhibitory concentration (IC50) was below 0.01 µM. For the same compound, the concentration for half-maximal inhibition (IC50) at Jak2 is 0.1 to 1 µM.

On to `Cc1nc2cnc3ccoc3c2n1[C@H]1CC[C@H](CC#N)OC1` [Example 11, 2-[(2R,5S)-5-[2-Methylfuro [3,2-b]imidazo [4,5-d]pyridin-1-yl]tetrahydropyran-2-yl] acetonitrile], for which the half-inhibitory concentration (IC50) is below 5 µM in assay [1], 20 to 100 µM in assay [2], below 0.01 µM on Jak1 and 0.01 to 0.1 µM at Jak2. Besides, in assay [2], the “Activity in the TPO induced STAT3 phosphorylation assay, statement in words” value is reported as “some activity”.

Turning to `C[C@@H](O)c1nc2cnc3ccoc3c2n1[C@H]1CC[C@H](CC#N)OC1` [Example 4, 2-[(2R,5S)-5-[2-[(R)-1-Hydroxyethyl]furo[3,2-b]imidazo[4,5-d]pyridin-1-yl]tetrahydropyran-2-yl] acetonitrile], the IC50 was below 5 µM in assay [1], above 100 µM in assay [2], below 0.01 µM at Jak1 and 0.1 to 1 µM at Jak2. In addition, the “Inhibition of IL-6 induced STAT3 phosphorylation, statement in words” value in assay [1] was “selective inhibition of IL-6 induced STAT3 phosphorylation, but not TPO induced STAT3 phosphorylation”. Moreover, the “Jak1 inhibition, statement in words” value on Jak1 was “potent and selective Jak1 inhibitors”.

For the compound `N#CC[C@H]1CC[C@H](n2c(CO)nc3cnc4ccoc4c32)CO1` [Example 7, 2-[(2R,5S)-5-[2-(Hydroxymethyl)furo[3,2-b]imidazo[4,5-d]pyridin-1-yl]tetrahydropyran-2-yl] acetonitrile], the half-maximal inhibitory concentration (IC50) in assay [1] is below 5 µM; in assay [2], above 100 µM; at Jak1, below 0.01 µM; on Jak2 it was 0.1 to 1 µM. Further, the “Inhibition of IL-6 induced STAT3 phosphorylation, statement in words” value in assay [1] is reported as “selective inhibition of IL-6 induced STAT3 phosphorylation, but not TPO induced STAT3 phosphorylation”. The “Jak1 inhibition, statement in words” value at Jak1 is “potent and selective Jak1 inhibitors”.

Regarding `N#C[C@H]1CC[C@H](n2c(CO)nc3cnc4ccoc4c32)CC1` [Example 2, trans-4-[2-(Hydroxymethyl)furo[3,2-b]imidazo[4,5-d]pyridin-1-yl]cyclohexanecarbonitrile], the IC50 at Jak1 lay in the range of 0.1 to 1 µM.

Consider `C[C@@H](O)c1nc2cnc3ccoc3c2n1[C@H]1CC[C@H](C#N)CC1` [Example 1, trans-4-[2-[(R)-1-Hydroxyethyl]-1H-furo [3,2-b]imidazo [4,5-d]pyridin-1-yl] cyclohexanecarbonitrile], for which, at Jak1, the IC50 was 0.1 to 1 µM.
